Laboratory results published in patent publication EP1510220B1 (priority 1993, dated 1994).

What was measured:
[1] = tested on: Vascular smooth muscle cells (BO54); assay: Scratch-migration assay with morphological toxicity grading; format: cell-based, baboon; set-up: key: - = no migration; +1 = minimal; +2 = mild; +3 = moderate; +4 = marked (maximum density; limit of cell contact inhibition) migration
Experimental: (§1) Scratch assays to determine the extent of smooth muscle cell migration inhibition by cytochalasin B were performed in accordance with the following protocol:
(§2) Vascular smooth muscle cells (BO54) were derived from explants of baboon aortic smooth muscle, as described in Example 1. The cells were grown in flat bottom, six well tissue culture plates, which hold about 5 ml of medium. The vascular smooth muscle cells were plated at 200,000 cells/well and placed at 37°C in a humidified 5% CO2 incubator for 18 hours. The wells were then scratched with a sterile portion of a single edge razor blade that was held by clamp or pliers and was brought aseptically into contact with the bottom of the well at a 90° angle. The cells from a small area along the scratch were removed by a sterile cotton tipped applicator while the blade was in contact with the bottom of the well. After incubation, the presence of cells in the "scratched" area is indicative of cell migration across the scratch line.
(§3) Briefly, a stock solution of cytochalasin B (Sigma Chemical Co.) in dimethyl sulfoxide (DMSO) at 1 mg/ml was prepared. Test dilutions of cytochalasin B or control medium were added. Each experiment included two sets of plates: • A set: Test agent exposure for 1, 3, 6, 8 and 10 days only; and • B set: Test agent exposure for 1, 3, 6, 8 and 10 days, followed by a seven day recovery time with control medium. Both sets of plates were fixed (10% formalin in PBS) and stained (0.02% crystal violet) at the end of the timed exposures. Test concentrations for cytochalasin B were 1, 0.1 and 0.01 µg/ml, and a negative medium control was included. Fresh medium and drug were supplied 3 times per week.
(§4) In this Table, "M" indicates Migration Grade, wherein - = no migration; +1 = minimal; +2 = mild; +3 = moderate; and +4 = marked (maximum density; limit of cell contact inhibition) migration of vascular smooth muscle cells into the cleared area adjacent to the scratch. In this Table, "T" denotes a morphological Toxicity Grade, wherein - = no toxicity; +1 = minimal; +2 = mild; +3 = moderate; and +4 = marked toxicity. The migration results are expressed as "Grade in the Cleared Area of the Well / Grade in an Undisturbed Region of the Well." The toxicity values represent a grade for all cells in each well.

[2] = tested on: Vascular smooth muscle cells (BO54); assay: as above; format: cell-based, baboon; set-up: key to Migration Grade in the Cleared Area of the Well / Migration Grade in an Undisturbed Region of the Well: - = no migration; +1 = minimal; +2 = mild; +3 = moderate; +4 = marked (maximum density; limit of cell contact inhibition) migration
Experimental: as §1, §2, §3, §4

[3] = 7-day Recovery Post Exposure, 1.0 µg/mL, Day 1
[4] = 7-day Recovery Post Exposure, 1.0 µg/mL, Day 3
[5] = 7-day Recovery Post Exposure, 1.0 µg/mL, Day 6
[6] = 7-day Recovery Post Exposure, 1.0 µg/mL, Day 8
[7] = 7-day Recovery Post Exposure, 1.0 µg/mL, Day 10
[8] = Continuous Exposure, 0.1 µg/mL, Day 3
[9] = Continuous Exposure, 0.1 µg/mL, Day 6
[10] = Continuous Exposure, 0.1 µg/mL, Day 8
[11] = Continuous Exposure, 0.1 µg/mL, Day 10
[12] = Continuous Exposure, 1.0 µg/mL, Day 1
[13] = Continuous Exposure, 1.0 µg/mL, Day 3
[14] = 7-day Recovery Post Exposure, 0.01 µg/mL, Day 1
[15] = 7-day Recovery Post Exposure, 0.01 µg/mL, Day 3
[16] = 7-day Recovery Post Exposure, 0.01 µg/mL, Day 6
[17] = 7-day Recovery Post Exposure, 0.01 µg/mL, Day 8
[18] = 7-day Recovery Post Exposure, 0.01 µg/mL, Day 10
[19] = 7-day Recovery Post Exposure, 0.1 µg/mL, Day 1
[20] = 7-day Recovery Post Exposure, 0.1 µg/mL, Day 3
[21] = 7-day Recovery Post Exposure, 0.1 µg/mL, Day 6
[22] = 7-day Recovery Post Exposure, 0.1 µg/mL, Day 8
[23] = 7-day Recovery Post Exposure, 0.1 µg/mL, Day 10
[24] = Continuous Exposure, 0.01 µg/mL, Day 1
[25] = Continuous Exposure, 0.01 µg/mL, Day 3
[26] = Continuous Exposure, 0.01 µg/mL, Day 6
[27] = Continuous Exposure, 0.01 µg/mL, Day 8
[28] = Continuous Exposure, 0.01 µg/mL, Day 10
[29] = Continuous Exposure, 0.1 µg/mL, Day 1
[30] = Continuous Exposure, 1.0 µg/mL, Day 6
[31] = Continuous Exposure, 1.0 µg/mL, Day 8
[32] = Continuous Exposure, 1.0 µg/mL, Day 10

cytochalasin B
morphological Toxicity Grade [1, 3]: +2
morphological Toxicity Grade [1, 4]: +1
morphological Toxicity Grade [1, 5]: +3
morphological Toxicity Grade [1, 6]: +3
morphological Toxicity Grade [1, 7]: +3
morphological Toxicity Grade [1, 8]: +1
morphological Toxicity Grade [1, 9]: +1
morphological Toxicity Grade [1, 10]: +1
morphological Toxicity Grade [1, 11]: +1
morphological Toxicity Grade [1, 12]: +3
morphological Toxicity Grade [1, 13]: +3
ability to migrate following removal of the therapeutic agent (grade) ([2]; 0.1 µg/ml, even after 10 days of continuous exposure): +3 to +4
migration of vascular smooth muscle cells into the cleared area adjacent to the scratch (grade) ([2]; 0.1 µg/ml, summary of Table 1): +1 to +2
Migration Grade in an Undisturbed Region of the Well [2, 14]: +4
Migration Grade in the Cleared Area of the Well [2, 14]: +3
Migration Grade in an Undisturbed Region of the Well [2, 15]: +4
Migration Grade in the Cleared Area of the Well [2, 15]: +3
Migration Grade in an Undisturbed Region of the Well [2, 16]: +4/+4
Migration Grade in the Cleared Area of the Well [2, 16]: +4/+4
Migration Grade in an Undisturbed Region of the Well [2, 17]: +4/+4
Migration Grade in the Cleared Area of the Well [2, 17]: +4/+4
Migration Grade in an Undisturbed Region of the Well [2, 18]: +4/+4
Migration Grade in the Cleared Area of the Well [2, 18]: +4/+4
Migration Grade in an Undisturbed Region of the Well [2, 19]: +4
Migration Grade in the Cleared Area of the Well [2, 19]: +3
Migration Grade in an Undisturbed Region of the Well [2, 20]: +4
Migration Grade in the Cleared Area of the Well [2, 20]: +3
Migration Grade in an Undisturbed Region of the Well [2, 21]: +4
Migration Grade in the Cleared Area of the Well [2, 21]: +3
Migration Grade in an Undisturbed Region of the Well [2, 22]: +4
Migration Grade in the Cleared Area of the Well [2, 22]: +3
Migration Grade in an Undisturbed Region of the Well [2, 23]: +4/+4
Migration Grade in the Cleared Area of the Well [2, 23]: +4/+4
Migration Grade in an Undisturbed Region of the Well [2, 3]: +3
Migration Grade in the Cleared Area of the Well [2, 3]: +2
Migration Grade in an Undisturbed Region of the Well [2, 4]: +3
Migration Grade in the Cleared Area of the Well [2, 4]: +2
Migration Grade in an Undisturbed Region of the Well [2, 5]: +3
Migration Grade in the Cleared Area of the Well [2, 5]: +2
Migration Grade in an Undisturbed Region of the Well [2, 6]: +3
Migration Grade in the Cleared Area of the Well [2, 6]: +2
Migration Grade in an Undisturbed Region of the Well [2, 7]: +3
Migration Grade in the Cleared Area of the Well [2, 7]: +2
Migration Grade in an Undisturbed Region of the Well [2, 24]: +3
Migration Grade in the Cleared Area of the Well [2, 24]: +1
Migration Grade in an Undisturbed Region of the Well [2, 25]: +4
Migration Grade in the Cleared Area of the Well [2, 25]: +3
Migration Grade in an Undisturbed Region of the Well [2, 26]: +4
Migration Grade in the Cleared Area of the Well [2, 26]: +3
Migration Grade in an Undisturbed Region of the Well [2, 27]: +4
Migration Grade in the Cleared Area of the Well [2, 27]: +3
Migration Grade in an Undisturbed Region of the Well [2, 28]: +4
Migration Grade in the Cleared Area of the Well [2, 28]: +3
Migration Grade in an Undisturbed Region of the Well [2, 29]: +3
Migration Grade in the Cleared Area of the Well [2, 29]: +1
Migration Grade in an Undisturbed Region of the Well [2, 8]: +4
Migration Grade in the Cleared Area of the Well [2, 8]: +1
Migration Grade in an Undisturbed Region of the Well [2, 9]: +4
Migration Grade in the Cleared Area of the Well [2, 9]: +2
Migration Grade in an Undisturbed Region of the Well [2, 10]: +4
Migration Grade in the Cleared Area of the Well [2, 10]: +2
Migration Grade in an Undisturbed Region of the Well [2, 11]: +4
Migration Grade in the Cleared Area of the Well [2, 11]: +2
Migration Grade in an Undisturbed Region of the Well [2, 12]: +2
Migration Grade in the Cleared Area of the Well [2, 12]: -
Migration Grade in an Undisturbed Region of the Well [2, 13]: +2
Migration Grade in the Cleared Area of the Well [2, 13]: -
Migration Grade in an Undisturbed Region of the Well [2, 30]: +2
Migration Grade in the Cleared Area of the Well [2, 30]: -
Migration Grade in an Undisturbed Region of the Well [2, 31]: +2
Migration Grade in the Cleared Area of the Well [2, 31]: -
Migration Grade in an Undisturbed Region of the Well [2, 32]: +2
Migration Grade in the Cleared Area of the Well [2, 32]: -
